This note sets out measurements from patent US8552028B2, “8-phenylisoquinolines and pharmaceutical composition used in treatment for sepsis” (National Taiwan University, priority 2011, dated 2013).

SMILES strings stand for the structures. pKi: −log10 of the molar value.

For one experiment, the target named is 5-HT2A receptor (Homo sapiens, UniProt P28223). Nature of the experiment: 5-HT2A receptor binding affinity. The settings on record: for pKi: 5-HT2A receptor binding affinity; for 5-HT2A receptor binding affinity compared with sarpogrelate and ketanserin: comparison of Ki values, Table 8. From the text: The 5-HT2A Receptor Binding Affinity of Compounds 116, 157 and 167.
The 5-HT2A receptor binding affinity data are represented by Ki values.

The subject of experiment [1] is 5-HT induced amplification of platelet aggregation. Nature of the experiment: Collagen-elicited aggregation of rat platelet rich plasma, amplified by serotonin (Lumi-aggregometer). It is filed as cell-based, Spraque-Dawley rats. The conditions noted are these: rat PRP; for amplifying effects of serotonin on collagen induced platelet aggregation: collagen 3 μg/mL. As for the experimental part:
Blood samples were collected from male adult Spraque-Dawley rats, and platelet rich plasma (PRP) and platelet poor plasma (PPP) were obtained by centrifugation. Aggregation was elicited by adding collagen 3 μg/mL in PRP, and the aggregation response was recorded as the change of light transmission of PRP with Lumi-aggregometer. In FIG. 9a, collagen induced platelet aggregation, and the aggregation response was amplified by adding 10 μM serotonin in 30 seconds before adding collagen, as shown in FIG. 9b.

Experiment [2] has as its system rat de-endothelial thoracic descending aorta. Nature of the experiment: Serotonin induced rat thoracic aorta contraction (organ bath). Also noted: species or system Sprague Dawley rats. The conditions noted are these: 0.03 or 0.1 μM in organ bath; cumulative serotonin 30 nM-0.1 mM; FIG. 10. As for the experimental part: Thoracic aortae were obtained from adult male Sprague Dawley rats. The aortae were cleared of adhering periadventitial fat and cut into strips 3-4 mm in length. […] The tissue was incubated with warmed (37° C.), oxygenated (95% O2/5% CO2) Krebs-Henseleit solution (KBS, pH7.4) consisting of NaCl 118.2 mM, KCl 4.7 mM, KH2PO4 1.2 mM, MgSO4 1.2 mM, CaCl2·2H2O 1.9 mM, NaHCO3 25 mM and glucose 11.7 mM. Indomethacin (10 μM) was added to prevent the production of prostanoids. One end of the segment was fixed to the organ bath chamber, and the other to a force transducer (Type BG 25; Gould, Oxnard, Calif., USA) in which tension is recorded (model RS 3400 recorder, Gould). The preparations were allowed to equilibrate for at least 60 min under a passive tension of 1.5±0.2 g. Cumulative responses to serotonin (30 nM-0.1 mM) were examined for 20 min after addition of 0.03 or 0.1 μM compound 116 to the organ bath. Contraction responses were expressed as the percentage of maximum contraction.

In another experiment the test system is LPS induced endotoxaemia. The experiment can be described thus: Post-treatment of multiple doses on LPS induced endotoxaemia in mice model (survival). It is filed as in vivo. The conditions noted are these: for survival curve versus vehicle control group: Log rank test, p<0.01. As for the experimental part: 12 hours after intraperitoneal injection of lipopolysaccharide (LPS) 100 mg/kg, compound 116 100 μg/kg or 300 μg/kg were administrated intraperitoneally or subcutaneously every 6 hour till 48 hours after LPS insults. […] Survival curves were compared by the Log rank test, and 3 days survival rate was compared by the chi square test.

Chain of 5-HT2A receptor (P28223 whole entry): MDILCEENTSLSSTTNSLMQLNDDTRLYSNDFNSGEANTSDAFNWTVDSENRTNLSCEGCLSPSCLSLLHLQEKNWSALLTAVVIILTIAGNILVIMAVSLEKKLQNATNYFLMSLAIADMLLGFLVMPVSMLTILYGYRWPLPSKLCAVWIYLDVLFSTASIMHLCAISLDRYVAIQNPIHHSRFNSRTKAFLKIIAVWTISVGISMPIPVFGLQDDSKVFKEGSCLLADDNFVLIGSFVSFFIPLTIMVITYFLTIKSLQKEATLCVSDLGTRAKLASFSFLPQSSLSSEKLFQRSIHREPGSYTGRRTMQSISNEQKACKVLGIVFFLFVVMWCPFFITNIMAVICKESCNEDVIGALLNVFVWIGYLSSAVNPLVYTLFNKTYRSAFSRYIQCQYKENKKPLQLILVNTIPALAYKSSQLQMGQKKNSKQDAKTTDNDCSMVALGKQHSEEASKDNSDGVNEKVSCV

With `COc1ccc(-c2c(O)c(OC)cc3c2CN(CCc2ccccc2F)CC3)c(OC)c1` [Compound 116], at 5-HT2A receptor, the pKi is 8.46; the “5-HT2A receptor binding affinity compared with sarpogrelate and ketanserin” value is recorded as “higher than those of the well-known 5-HT2A receptor antagonists”. Also, the “amplifying effects of serotonin on collagen induced platelet aggregation” value in experiment [1] (3 μg/mL added 30 seconds before 10 μM serotonin) was “blocked”. The platelet activation entry in experiment [1] (FIGS. 9a-9d) is given as “Did not Exert Platelet Activation”. Further, the “serotonin induced smooth muscle contraction” value in experiment [2] was “inhibits serotonin induced smooth muscle contraction in a dose dependent manner”. Moreover, in the experiment with LPS induced endotoxaemia (100 μg/kg i.p. or s.c. every 6 hour from 12 h till 48 hours after LPS 100 mg/kg i.p.), the “survival curve versus vehicle control group” value was “shifted the survive curve rightward significantly”. Also, the “survival curve versus vehicle control group” value in the experiment with LPS induced endotoxaemia (300 μg/kg i.p. or s.c. every 6 hour from 12 h till 48 hours after LPS 100 mg/kg i.p.) is listed as “shifted the survive curve rightward significantly”.
Regarding `COc1cc2c(c(-c3ccccc3F)c1OC)CN(CCc1ccccc1)CC2` [Compound 157], on 5-HT2A receptor, the pKi is 8.66; the “5-HT2A receptor binding affinity compared with sarpogrelate and ketanserin” value is recorded as “higher than those of the well-known 5-HT2A receptor antagonists”.
In the case of `COc1cc2c(c(-c3ccccc3F)c1OC)CN(CCc1ccccc1Cl)CC2` [Compound 167], on 5-HT2A receptor, the pKi was 9.92; the “5-HT2A receptor binding affinity compared with sarpogrelate and ketanserin” value is on record as “higher than those of the well-known 5-HT2A receptor antagonists”. The “effect of post-treatment of multiple doses on LPS induced endotoxaemia” value in the experiment with LPS induced endotoxaemia (same method as for compound 116, FIG. 8) was “Protective Effects”.
On to `O=C(c1ccc(F)cc1)C1CCN(CCn2c(=O)[nH]c3ccccc3c2=O)CC1` [ketanserin, reference compound], for which the “amplifying effects of serotonin on collagen induced platelet aggregation” value in experiment [1] (10 μM added 30 seconds before 10 μM serotonin) is reported as “blocked”.
Turning to `COc1cccc(CCc2ccccc2OCC(CN(C)C)OC(=O)CCC(=O)O)c1` (centres unmarked) [sarpogrelate, reference compound], the pKi on 5-HT2A receptor was 8.08.

The term pKi denotes the Ki on a negative log10 scale, so that one unit is a factor of ten. Read a low pKi as a large Ki.
